# Laboratory results taken from patent publication US20120027687A1, “FATTY ACID PROTEIN KINASE C ACTIVATORS AND ANTICOAGULANT FOR THE TREATMENT OF STROKE” (priority 2010, published 2012).
# What was measured:
# PKC = PKC activation over time in hippocampal primary neurons; format: cell-based, rat
# Protocol: (§1) Cell culture. Rat hippocampal H19-7/IGF-IR cells (ATCC, Manassas, Va.) were plated onto poly-L-lysine coated plates and grown at 35° C. in DMEM/10% FCS for several days until about 50% coverage was obtained. The cells were then induced to differentiate into a neuronal phenotype by replacing the medium with 5 ml N2 medium containing 10 ng/ml basic fibroblast growth factor at 39° C. and grown in T-75 flasks at 37° C. Human SH-SY5Y neuroblastoma cells (ATCC) were cultured in 45% F12K/45% MEM/10% FCS. Mouse N2A neuroblastoma cells were cultured in DMEM/10% FCS without glutamine. Rat hippocampal neurons from 18-day-old embryonic Sprague Dawley rat brains were plated on 12- or 96-well plates coated with poly-D-lysine (Sigma-Aldrich, St. Louis, Mo.) in B-27 neurobasal medium containing 0.5 mM glutamine and 25 μM glutamate (Invitrogen, Carlsbad, Calif.) and cultured for three days in the medium without glutamate. The neuronal cells were grown under 5% CO2 in an incubator maintained at 37° C. for 14 days.
# Protein kinase C assay. […] 0.5 Ci [^γ32P]ATP was added and ^32P-phosphoprotein formation was measured by adsorption onto phosphocellulose as described previously. […] PKC activity was measured in the absence of diacylglycerol and phosphatidylserine and PKC δ, ε, η, and μ were measured in the absence of added EGTA and CaCl2, as described by Kanno et al. (J. Lipid Res. 2006, vol. 47, pp. 1146-1150). […]
# Aβ = Aβ production in N2a neuroblastoma cells transfected with human APPSwe/PSID; format: cell-based, mouse; details: 24 hours
# Protocol: as §1
# Aβ Measurement and Cell Viability Assay. Aβ was measured using an Aβ 1-42 human fluorimetric ELISA kit (Invitrogen) according to the manufacturer's instructions. Results were measured in a Biotek Synergy HT microplate reader. AlamarBlue and CyQuant NF (Invitrogen) according to the manufacturer's instructions.
# To measure the effects of PKCε activation on Aβ production, mouse neuro2a (N2a) neuroblastoma cells transfected with human APPSwe/PSID were used, which produce large quantities of Aβ. Petanceska et al., J. Neurochem. (1996), vol. 74, pp. 1878-1884. […] With bryostatin, which activates PKC by binding to the diacylglycerol-binding site, the inhibition was biphasic with concentrations of 20 nM or higher producing no net effect. This may be explained by the ability of this class of PKC activators to downregulate PKC when used at high concentrations.
# TACE = TACE activity in neuronal cells; format: cell-based, human, mouse; details: SH-SY5Y cells, N2a cells, primary neurons from rat hippocampus
# Protocol: TACE Assay. TACE was measured by incubating 5 μl cell homogenate, 3 μl buffer (50 mM Tris-HCl 7.4 plus 25 mM NaCl plus 4% glycerol), and 1 μl of 100 μM TACE substrate (Aβz-[…]-DPa) (Calbiochem) for 20 min at 37° C. 1.5-ml polypropylene centrifuge tubes. Jin et al., Anal. Biochem. (2002), vol. 302, pp. 269-275. The reaction was stopped by cooling to 4° C. The samples were diluted to 1 ml and the fluorescence was rapidly measured (ex=320 nm, em=420 nm) in a Spex Fluorolog 2 spectrofluorometer.
# other PKC isoforms = test: PKC isozyme specificity, other isoforms; format: biochemical; details: at 10 μM, data not shown
# Protocol: Protein kinase C assay. Rat hippocampal cells were cultured and scraped in 0.2 ml homogenization buffer (20 mM Tris-HCl, pH 7.4, 50 mM NaF, 1 μg/ml leupeptin, and 0.1 mM PMSF) and homogenized by sonication a Marsonix microprobe sonicator (5 sec, 10W). To measure PKC, 10 μl of cell homogenate or purified PKC isozyme (purchased from Calbiochem) was incubated for 15 min at 37° C. in the presence of 10 μM histones, 4.89 mM CaCl2, 1.2 μg/μl phosphatidyl-L-serine, 0.18 μg/μl 1,2-dioctanoyl-sn-glycerol, 10 mM MgCl2, 20 mM HEPES (pH 7.4), 0.8 mM EDTA, 4 mM EGTA, 4% glycerol, 8 μg/ml aprotinin, 8 μg/ml leupeptin, and 2 mM benzamidine. 0.5 Ci [^γ32P]ATP was added and ^32P-phosphoprotein formation was measured by adsorption onto phosphocellulose as described previously. Nelson and Alkon, J. Neurochemistry (1995), vol. 65, pp. 2350-2357. For measurements of activation by BR-101 (DCP-LA) and similar compounds. PKC activity was measured in the absence of diacylglycerol and phosphatidylserine and PKC δ, ε, η, and μ were measured in the absence of added EGTA and CaCl2, as described by Kanno et al. (J. Lipid Res. 2006, vol. 47, pp. 1146-1150). […]
# (§2) To determine their PKC isozyme specificity, fatty acid derivatives were preincubated with purified PKC for five minutes and the PKC activity was measured radiometrically.
# PKCε = target: T1, PKCε (Homo sapiens, UniProt Q02156); test: PKC assay with purified PKCε; format: biochemical
# T1 construct: purchased Calbiochem
# T1 sequence (Q02156 1-737): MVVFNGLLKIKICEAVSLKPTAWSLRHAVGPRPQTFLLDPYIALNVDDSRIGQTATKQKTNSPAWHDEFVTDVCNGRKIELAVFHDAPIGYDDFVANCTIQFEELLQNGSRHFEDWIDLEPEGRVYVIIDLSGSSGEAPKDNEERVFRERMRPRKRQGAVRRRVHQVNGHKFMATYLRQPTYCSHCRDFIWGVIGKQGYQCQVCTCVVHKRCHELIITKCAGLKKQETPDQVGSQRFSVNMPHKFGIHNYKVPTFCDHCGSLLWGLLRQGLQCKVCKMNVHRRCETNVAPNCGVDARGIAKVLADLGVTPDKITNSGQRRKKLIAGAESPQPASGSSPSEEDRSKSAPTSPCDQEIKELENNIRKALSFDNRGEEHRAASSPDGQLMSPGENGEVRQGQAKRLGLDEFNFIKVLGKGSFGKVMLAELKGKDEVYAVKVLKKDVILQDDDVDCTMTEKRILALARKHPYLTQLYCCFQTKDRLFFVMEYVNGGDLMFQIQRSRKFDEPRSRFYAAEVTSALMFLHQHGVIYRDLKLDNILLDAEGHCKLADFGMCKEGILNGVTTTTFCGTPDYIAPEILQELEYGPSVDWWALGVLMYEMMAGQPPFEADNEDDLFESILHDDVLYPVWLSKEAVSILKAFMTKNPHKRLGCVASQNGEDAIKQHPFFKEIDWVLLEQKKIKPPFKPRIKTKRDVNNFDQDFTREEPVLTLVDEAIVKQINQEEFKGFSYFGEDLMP
# Protocol: PKC assay. […] 0.5 micro Ci[^γ32P]ATP was added. […] The reaction was stopped by spotting the reaction mixtures on 1×2 cm strips of cellulose phosphate paper (Whatman P81) and immediately washing twice for 1 hr in 0.5% H3PO4. The cellulose phosphate strips were counted in a scintillation counter. In some experiments, phosphatidylserine, diacylglycerol, and/or calcium were removed. […]
# as §2
structure (smiles),measurement,setting,value
"CCCCCC1CC1CC1CC1CCCCCCCC(=O)O (centres unmarked) [BR-101, 2-[(2-pentylcyclopropyl)methyl]cyclopropaneoctanoic acid]",duration of elevated PKC,PKC,remained elevated for at least four hours
same,levels of intracellular Aβ,Aβ; various concentrations,markedly reduced
same,levels of secreted Aβ,Aβ; various concentrations,markedly reduced
same,concentration dependence of Aβ inhibition,Aβ; fatty acid derivatives up to 10 μM to 100 μM,monotonically increasing inhibition
same,TACE activity,TACE,small increases
same,effects on the other PKC isoforms,other PKC isoforms,relatively small effects
same,activation of PKCε,"PKCε; 10 nM, lowest concentration tested",2.75 fold
same,activation of PKCε,PKCε; at 10 μM,effective activator
